Earlier results, collected in US20050101577A1, “2-alkylidene-19-nor-vitamin D derivatives for the treatment of rickets or vitamin D deficiency” (Pfizer Inc., priority 2003, published 2005).

Test system: intestinal calcium transport
Conditions: 260 pmol/day, only dose tested

For C=C1/C(=C\C=C2/CCC[C@]3(C)[C@@H]([C@H](C)CCCC(C)(C)O)CC[C@@H]23)C[C@@H](O)C[C@@H]1O [1,25-(OH)2D3, 1,25-dihydroxyvitamin D3], the “intestinal calcium transport (in words)” value is listed as “expected elevation of intestinal calcium transport”.
